Measurements taken from publication PMC10141580, “Cyclic Dichalcogenides Extend the Reach of Bioreductive Prodrugs to Harness Thiol/Disulfide Oxidoreductases: Applications to seco-Duocarmycins Targeting the Thioredoxin System” (ACS Central Science, 2023).
Read-outs that look alike come from different tables or passages of the source.

Test system: NCI-60 standardized human tumor cell line panel
Assay: cells
Type: cell-based
Settings: for NCI-60 screening: Log(GI50): log10 of GI50 in M; for NCI-60 screening: Log(RedIndex): log10 reductive index vs P-CC60

**Q.** For `COc1cc2cc(C(=O)N3CC(CCl)c4c3cc(OC(=O)N3CCN(C)C5CSSCC53)c3ccccc43)[nH]c2c(OC)c1OC` (mixture of isomers) [Me-SS66T-CBI-TMI], which “NCI-60 screening: Log(GI50)” value (786-0 (RE) cell line) is on record?
**A.** The value was -7.79.

**Q.** And the “NCI-60 screening: Log(RedIndex)” value (786-0 (RE) cell line)?
**A.** Its value is 2.03.

**Q.** And the GI50 (786-0 (RE) cell line, read-out: NCI-60 screening: Raw GI50)?
**A.** The GI50 was 16 nM.

**Q.** What about the GI50 (786-0, read-out: GI50) of the same compound?
**A.** Its GI50 is 16 nM.

**Q.** What about the “NCI-60 screening: Log(GI50)” value (A498 (RE) cell line) of the same compound?
**A.** The value was -6.9.

**Q.** What about the “NCI-60 screening: Log(RedIndex)” value (A498 (RE) cell line) of the same compound?
**A.** The value was 1.34.

**Q.** What about the GI50 (A498 (RE) cell line, read-out: NCI-60 screening: Raw GI50) of the same compound?
**A.** The GI50 was 130 nM.

**Q.** And the GI50 (A498, read-out: GI50)?
**A.** Its GI50 is 130 nM.

**Q.** And the GI50 (A549/ATCC, read-out: GI50)?
**A.** Its GI50 is 12 nM.

**Q.** And the “NCI-60 screening: Log(GI50)” value (ACHN (RE) cell line)?
**A.** Its value is -8.02.

**Q.** And the “NCI-60 screening: Log(RedIndex)” value (ACHN (RE) cell line)?
**A.** The value was 1.71.

**Q.** And the GI50 (ACHN (RE) cell line, read-out: NCI-60 screening: Raw GI50)?
**A.** The GI50 was 9.5 nM.

**Q.** What about the GI50 (ACHN, read-out: GI50) of the same compound?
**A.** Its GI50 is 9.5 nM.

**Q.** What about the GI50 (BT-549, read-out: GI50) of the same compound?
**A.** Its GI50 is 15 nM.

**Q.** And the “NCI-60 screening: Log(GI50)” value (CAKI-1 (RE) cell line)?
**A.** The value was -7.56.

**Q.** And the “NCI-60 screening: Log(RedIndex)” value (CAKI-1 (RE) cell line)?
**A.** The value was 1.74.

**Q.** What about the GI50 (CAKI-1 (RE) cell line, read-out: NCI-60 screening: Raw GI50) of the same compound?
**A.** Its GI50 is 27 nM.

**Q.** And the GI50 (CAKI-1, read-out: GI50)?
**A.** Its GI50 is 27 nM.

**Q.** What about the GI50 (CCRF-CEM, read-out: GI50) of the same compound?
**A.** Its GI50 is 26 nM.

**Q.** What about the GI50 (COLO 205, read-out: GI50) of the same compound?
**A.** Its GI50 is 49 nM.

**Q.** What about the “NCI-60 screening: Log(GI50)” value (DU-145 (PR) cell line) of the same compound?
**A.** The value was -8.46.

**Q.** What about the “NCI-60 screening: Log(RedIndex)” value (DU-145 (PR) cell line) of the same compound?
**A.** The value was 2.12.

**Q.** And the GI50 (DU-145, read-out: GI50)?
**A.** Its GI50 is 3.5 nM.

**Q.** And the GI50 (EKVX, read-out: GI50)?
**A.** The GI50 was 18 nM.

**Q.** And the GI50 (HCC-2998, read-out: GI50)?
**A.** Its GI50 is 15 nM.

**Q.** What about the GI50 (HCT-15, read-out: GI50) of the same compound?
**A.** The GI50 was 22 nM.

**Q.** What about the GI50 (HCT-116, read-out: GI50) of the same compound?
**A.** The GI50 was 18 nM.

**Q.** And the GI50 (HL-60(TB), read-out: GI50)?
**A.** Its GI50 is 12 nM.

**Q.** What about the GI50 (HOP-62, read-out: GI50) of the same compound?
**A.** Its GI50 is 12 nM.

**Q.** And the GI50 (HOP-92, read-out: GI50)?
**A.** Its GI50 is 27 nM.

**Q.** What about the GI50 (HT29, read-out: GI50) of the same compound?
**A.** The GI50 was 34 nM.

**Q.** What about the “NCI-60 screening: Log(GI50)” value (IGROV1 (OV) cell line) of the same compound?
**A.** Its value is -7.23.

**Q.** And the “NCI-60 screening: Log(RedIndex)” value (IGROV1 (OV) cell line)?
**A.** Its value is 1.6.

**Q.** And the GI50 (IGROV1 (OV) cell line, read-out: NCI-60 screening: Raw GI50)?
**A.** The GI50 was 58 nM.

**Q.** What about the GI50 (IGROV1, read-out: GI50) of the same compound?
**A.** Its GI50 is 58 nM.

**Q.** And the GI50 (K-562, read-out: GI50)?
**A.** Its GI50 is 25 nM.

**Q.** And the GI50 (KM12, read-out: GI50)?
**A.** Its GI50 is 44 nM.

**Q.** What about the GI50 (LOX IMVI, read-out: GI50) of the same compound?
**A.** Its GI50 is 12 nM.

**Q.** And the GI50 (M14, read-out: GI50)?
**A.** The GI50 was 10 nM.

**Q.** And the GI50 (MALME-3M, read-out: GI50)?
**A.** Its GI50 is 14 nM.

**Q.** What about the GI50 (MCF7, read-out: GI50) of the same compound?
**A.** The GI50 was 5.2 nM.

**Q.** What about the GI50 (MDA-MB-435, read-out: GI50) of the same compound?
**A.** Its GI50 is 27 nM.

**Q.** And the GI50 (MDA-MB-468, read-out: GI50)?
**A.** Its GI50 is 12 nM.

**Q.** And the GI50 (MOLT-4, read-out: GI50)?
**A.** Its GI50 is 9.9 nM.

**Q.** What about the GI50 (NCI-H23, read-out: GI50) of the same compound?
**A.** The GI50 was 9.5 nM.

**Q.** And the GI50 (NCI-H226, read-out: GI50)?
**A.** The GI50 was 95 nM.

**Q.** What about the “NCI-60 screening: Log(GI50)” value (NCI-H460 (LC) cell line) of the same compound?
**A.** The value was -8.32.

**Q.** What about the “NCI-60 screening: Log(RedIndex)” value (NCI-H460 (LC) cell line) of the same compound?
**A.** The value was 2.03.

**Q.** What about the GI50 (NCI-H460, read-out: GI50) of the same compound?
**A.** The GI50 was 4.8 nM.

**Q.** What about the “NCI-60 screening: Log(GI50)” value (NCI-H522 (LC) cell line) of the same compound?
**A.** Its value is -7.91.

**Q.** What about the “NCI-60 screening: Log(RedIndex)” value (NCI-H522 (LC) cell line) of the same compound?
**A.** The value was 2.14.

**Q.** What about the GI50 (NCI-H522 (LC) cell line, read-out: NCI-60 screening: Raw GI50) of the same compound?
**A.** The GI50 was 12 nM.

**Q.** What about the GI50 (NCI-H522, read-out: GI50) of the same compound?
**A.** The GI50 was 12 nM.

**Q.** And the “NCI-60 screening: Log(GI50)” value (OVCAR-3 (OV) cell line)?
**A.** Its value is -7.28.

**Q.** What about the “NCI-60 screening: Log(RedIndex)” value (OVCAR-3 (OV) cell line) of the same compound?
**A.** Its value is 1.6.

**Q.** And the GI50 (OVCAR-3, read-out: GI50)?
**A.** Its GI50 is 53 nM.

**Q.** And the “NCI-60 screening: Log(GI50)” value (OVCAR-4 (OV) cell line)?
**A.** The value was -6.8.

**Q.** And the “NCI-60 screening: Log(RedIndex)” value (OVCAR-4 (OV) cell line)?
**A.** Its value is 1.17.

**Q.** And the GI50 (OVCAR-4 (OV) cell line, read-out: NCI-60 screening: Raw GI50)?
**A.** Its GI50 is 160 nM.

**Q.** And the GI50 (OVCAR-4, read-out: GI50)?
**A.** The GI50 was 160 nM.

**Q.** What about the “NCI-60 screening: Log(GI50)” value (OVCAR-5 (OV) cell line) of the same compound?
**A.** The value was -7.44.

**Q.** What about the “NCI-60 screening: Log(RedIndex)” value (OVCAR-5 (OV) cell line) of the same compound?
**A.** Its value is 2.15.

**Q.** And the GI50 (OVCAR-5, read-out: GI50)?
**A.** Its GI50 is 36 nM.

**Q.** And the “NCI-60 screening: Log(GI50)” value (OVCAR-8 (OV) cell line)?
**A.** Its value is -8.06.

**Q.** And the “NCI-60 screening: Log(RedIndex)” value (OVCAR-8 (OV) cell line)?
**A.** The value was 2.28.

**Q.** And the GI50 (OVCAR-8, read-out: GI50)?
**A.** Its GI50 is 8.6 nM.

**Q.** What about the “NCI-60 screening: Log(GI50)” value (PC-3 (PR) cell line) of the same compound?
**A.** The value was -7.61.

**Q.** What about the “NCI-60 screening: Log(RedIndex)” value (PC-3 (PR) cell line) of the same compound?
**A.** The value was 2.11.

**Q.** And the GI50 (PC-3 (PR) cell line, read-out: NCI-60 screening: Raw GI50)?
**A.** Its GI50 is 25 nM.

**Q.** And the GI50 (PC-3, read-out: GI50)?
**A.** Its GI50 is 25 nM.

**Q.** And the GI50 (RPMI-8226, read-out: GI50)?
**A.** The GI50 was 34 nM.

**Q.** What about the “NCI-60 screening: Log(GI50)” value (RXF 393 (RE) cell line) of the same compound?
**A.** Its value is -8.02.

**Q.** What about the “NCI-60 screening: Log(RedIndex)” value (RXF 393 (RE) cell line) of the same compound?
**A.** Its value is 2.05.

**Q.** What about the GI50 (RXF 393 (RE) cell line, read-out: NCI-60 screening: Raw GI50) of the same compound?
**A.** The GI50 was 9.5 nM.

**Q.** What about the GI50 (RXF 393, read-out: GI50) of the same compound?
**A.** The GI50 was 9.5 nM.

**Q.** And the GI50 (SF-268, read-out: GI50)?
**A.** Its GI50 is 15 nM.

**Q.** What about the GI50 (SF-295, read-out: GI50) of the same compound?
**A.** The GI50 was 9.7 nM.

**Q.** What about the GI50 (SF-539, read-out: GI50) of the same compound?
**A.** The GI50 was 10 nM.

**Q.** And the GI50 (SK-MEL-5, read-out: GI50)?
**A.** The GI50 was 13 nM.

**Q.** What about the GI50 (SK-MEL-28, read-out: GI50) of the same compound?
**A.** The GI50 was 15 nM.

**Q.** What about the “NCI-60 screening: Log(GI50)” value (SK-OV-3 (OV) cell line) of the same compound?
**A.** The value was -7.91.

**Q.** And the “NCI-60 screening: Log(RedIndex)” value (SK-OV-3 (OV) cell line)?
**A.** Its value is 2.24.

**Q.** And the GI50 (SK-OV-3 (OV) cell line, read-out: NCI-60 screening: Raw GI50)?
**A.** The GI50 was 12 nM.

**Q.** What about the GI50 (SK-OV-3, read-out: GI50) of the same compound?
**A.** Its GI50 is 12 nM.

**Q.** What about the “NCI-60 screening: Log(GI50)” value (SN12C (RE) cell line) of the same compound?
**A.** Its value is -7.77.

**Q.** What about the “NCI-60 screening: Log(RedIndex)” value (SN12C (RE) cell line) of the same compound?
**A.** The value was 1.85.

**Q.** What about the GI50 (SN12C, read-out: GI50) of the same compound?
**A.** The GI50 was 17 nM.

**Q.** What about the GI50 (SNB-19, read-out: GI50) of the same compound?
**A.** Its GI50 is 16 nM.

**Q.** And the GI50 (SR, read-out: GI50)?
**A.** The GI50 was 4 nM.

**Q.** And the GI50 (SW-620, read-out: GI50)?
**A.** The GI50 was 58 nM.

**Q.** And the GI50 (T-47D, read-out: GI50)?
**A.** Its GI50 is 50 nM.

**Q.** What about the “NCI-60 screening: Log(GI50)” value (TK-10 (RE) cell line) of the same compound?
**A.** Its value is -6.9.

**Q.** And the “NCI-60 screening: Log(RedIndex)” value (TK-10 (RE) cell line)?
**A.** Its value is 1.35.

**Q.** What about the GI50 (TK-10 (RE) cell line, read-out: NCI-60 screening: Raw GI50) of the same compound?
**A.** Its GI50 is 130 nM.
